Measurements taken from patent US20080161309A1, “Novel Compounds” (priority 2004, published 2008).
Structures can show the parent of a compound that is named as a salt.

Columns and labels:
[1] = biological target: T1, human norepinephrine transporter (hNET) (Homo sapiens, UniProt P23975); assay: hNET receptor binding, [125I]-RTI-55, HEK-293 membranes; details: Cheng-Prusoff, read-out: NET Ki
T1 construct: expressed in transfected cells; host or cells: HEK-293, membranes
Method: Cell pastes of HEK-293 cells transfected with a human norepinephrine transporter cDNA were prepared. The cell pastes were resuspended in 400 to 700 ml of Krebs-HEPES assay buffer (25 mM HEPES, 122 mM NaCl, 3 mM KCl, 1.2 mM MgSO4, 1.3 mM CaCl2, and 11 mM glucose, pH 7.4) with a Polytron homogenizer at setting 7 for 30 seconds. Aliquots of membranes (5 mg/ml protein) were stored in liquid nitrogen until used.
The binding assay was set up in Beckman deep-well polypropylene plates with a total volume of 250 μl containing: drug (10^−5M to 10^−12M), cell membranes, and […] [^125I]-RTI-55 (Perkin Elmer, NEX-272; specific activity 2200 Ci/mmol). The reaction was incubated by gentle agitation for 90 minutes at room temperature and was terminated by filtration through Whatman GF/C filter plates using a Brandel 96-well plate harvester. Scintillation fluid (100 μl) was added to each well, and bound [^125I]-RTI-55 was determined using a Wallac Trilux Beta Plate Counter. Test compounds were run in duplicate, and specific binding was defined as the difference between binding in the presence and absence of 10 μM desipramine.
Excel and GraphPad Prism software were used for data calculation and analysis. IC50 values were converted to Ki values using the Cheng-Prusoff equation. The Ki values (nM) for the hNET are reported below in Table 1.

[2] = biological target: T2, human serotonin transporter (hSERT) (Homo sapiens, UniProt P31645); assay: hSERT receptor binding, [125I]-RTI-55, HEK-293 membranes; details: [125I]-RTI-55, HEK-293 membranes, Cheng-Prusoff; read-out: SERT Ki
T2 construct: expressed in transfected cells; host or cells: HEK-293, membranes
T2 sequence (P31645 whole entry): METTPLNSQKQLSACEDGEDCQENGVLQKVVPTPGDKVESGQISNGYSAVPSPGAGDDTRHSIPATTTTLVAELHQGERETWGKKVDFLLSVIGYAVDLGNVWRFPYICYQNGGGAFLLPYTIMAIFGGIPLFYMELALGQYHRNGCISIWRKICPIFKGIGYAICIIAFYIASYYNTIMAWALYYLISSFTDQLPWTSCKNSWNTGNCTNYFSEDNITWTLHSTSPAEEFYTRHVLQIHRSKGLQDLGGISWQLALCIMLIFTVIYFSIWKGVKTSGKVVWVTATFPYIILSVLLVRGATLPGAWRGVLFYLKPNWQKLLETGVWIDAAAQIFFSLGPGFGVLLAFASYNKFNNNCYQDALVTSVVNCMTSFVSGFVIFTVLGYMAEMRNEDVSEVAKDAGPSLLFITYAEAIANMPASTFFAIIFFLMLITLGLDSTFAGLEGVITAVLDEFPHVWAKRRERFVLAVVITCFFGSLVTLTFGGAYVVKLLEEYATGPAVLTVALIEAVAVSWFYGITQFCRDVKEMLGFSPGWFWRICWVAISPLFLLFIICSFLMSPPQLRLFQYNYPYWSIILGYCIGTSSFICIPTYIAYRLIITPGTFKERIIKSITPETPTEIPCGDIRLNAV
Method: Cell pastes of HEK-293 cells transfected with a human serotonin transporter cDNA were prepared. […] Aliquots of membranes (−2.5 mg/ml protein) were stored in liquid nitrogen until used.
The reaction was incubated and gently agitated for 90 minutes at room temperature, and terminated by removal of assay volume. […] Test compounds were run in duplicate, and specific binding was defined as the difference between binding in the presence and absence of 10 μM citalopram. Excel and GraphPad Prism software were used for data calculation and analysis. IC50 values were converted to Ki values using the Cheng-Prusoff equation.

T1 sequence (P23975 whole entry): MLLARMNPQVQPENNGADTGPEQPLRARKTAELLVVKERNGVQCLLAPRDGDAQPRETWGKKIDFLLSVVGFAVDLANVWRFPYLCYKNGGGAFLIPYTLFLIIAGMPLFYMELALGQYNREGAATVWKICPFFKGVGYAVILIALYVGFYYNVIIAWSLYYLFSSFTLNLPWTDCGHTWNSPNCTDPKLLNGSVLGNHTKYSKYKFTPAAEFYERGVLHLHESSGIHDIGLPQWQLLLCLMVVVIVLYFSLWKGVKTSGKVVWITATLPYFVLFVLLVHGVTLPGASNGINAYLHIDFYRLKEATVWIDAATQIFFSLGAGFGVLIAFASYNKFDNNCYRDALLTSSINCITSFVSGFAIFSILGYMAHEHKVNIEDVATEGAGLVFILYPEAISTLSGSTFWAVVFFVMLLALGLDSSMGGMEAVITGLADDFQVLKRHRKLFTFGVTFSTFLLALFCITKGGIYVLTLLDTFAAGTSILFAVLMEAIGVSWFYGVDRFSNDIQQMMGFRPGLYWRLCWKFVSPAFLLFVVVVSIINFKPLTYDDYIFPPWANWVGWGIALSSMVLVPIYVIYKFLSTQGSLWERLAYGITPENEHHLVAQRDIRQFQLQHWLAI

| SMILES | Ki [1] [nM] | Ki [2] [nM] |
| --- | --- | --- |
| Fc1cccc([C@H](Oc2cccc(F)c2F)[C@@H]2CNCCO2)c1 [Example 39, (2S)-2-[(1S)-(2,3-Difluorophenoxy)(3-fluorophenyl)methyl] morpholine hydrochloride] | 3.77 | 142 |
| COc1cc(C)ccc1O[C@@H](c1ccccc1)[C@@H]1CNCCO1 [Example 40, (2S)-2-[(1S)-(2-Methoxy-4-methylphenoxy)phenylmethyl] morpholine hydrochloride] | 4.3 | 158 |
| COc1cc(C)ccc1O[C@@H](c1ccc(F)cc1)[C@@H]1CNCCO1 [Example 42, (2S)-2-[(1S)-(2-methoxy-4-methylphenoxy)4-fluorophenyl) methyl] morpholine hydrochloride] | 11.4 | 69.2 |
| COc1cc(C)ccc1O[C@H](c1ccc(F)cc1)[C@H]1CNCCO1 [Example 43, (2R)-2-[(1R)-(2-Methoxy-4-methylphenoxy)4-Fluorophenyl) methyl] morpholine hydrochloride] | 1700 | 4.7 |
| Fc1cccc([C@H](Oc2ccc(Cl)cc2F)[C@@H]2CNCCO2)c1 [Example 44, (2S)-2-[(1S)-(4-Chloro-2-fluorophenoxy)(3-fluorophenyl)methyl] morpholine hydrochloride] | 33.3 | 74.8 |
| Fc1cccc([C@H](Oc2c(F)cccc2F)[C@@H]2CNCCO2)c1 [Example 47, (2S)-2-[(1S)-(2,6-Difluorophenoxy)-(3-fluorophenyl)methyl] morpholine hydrochloride] | 6.9 | 967 |
| Cc1ccccc1O[C@@H](c1cccc(F)c1)[C@@H]1CNCCO1 [Example 49, (2S)-2-[(1S)-(3-Fluorophenyl)-o-tolyloxy-methyl] morpholine hydrochloride] | 6.8 | 194 |
| COc1cccc(F)c1O[C@@H](c1cccc(F)c1)[C@@H]1CNCCO1 [Example 50, (2S)-2-[(1S)-(2-Fluoro-6-methoxyphenoxy)(3-fluorophenyl)methyl] morpholine hydrochloride] | 8 | 1070 |
| COc1ccc(C)cc1O[C@@H](c1cccc(F)c1)[C@@H]1CNCCO1 [Example 51, (2S)-2-[(1S)-(3-Fluorophenyl)-(2-methoxy-5-methylphenoxy)methyl] morpholine hydrochloride] | 26.6 | 1040 |
| Fc1ccc(Cl)c(O[C@@H](c2cccc(Cl)c2)[C@@H]2CNCCO2)c1 [Example 53, (2S)-2-[(1S)-(2-Chloro-5-fluorophenoxy) (3-chlorophenyl)methyl] morpholine hydrochloride] | 26.6 | 344 |
| COc1cc(Cl)ccc1O[C@@H](c1cccc(C)c1)[C@@H]1CNCCO1 [Example 54, (2S)-2-[(1S)-(4-Chloro-2-methoxyphenoxy)-m-tolyl-methyl] morpholine hydrochloride] | 23.7 | 41.7 |
| COc1cc(C)ccc1O[C@@H](c1cccc(C)c1)[C@@H]1CNCCO1 [Example 55, (2S)-2-[(1S)-(2-Methoxy-4-methylphenoxy)-m-tolyl-methyl] morpholine hydrochloride] | 20.4 | 109 |
| COc1cc(F)ccc1O[C@@H](c1cccc(C)c1)[C@@H]1CNCCO1 [Example 57, (2S)-2-[(1S)-(4-Fluoro-2-methoxyphenoxy)-m-tolyl-methyl] morpholine hydrochloride] | 19.7 | 544 |
| COc1ccc(O[C@@H](c2cccc(C)c2)[C@@H]2CNCCO2)c(OC)c1 [Example 58, (2S)-2-[(1S)-(2,4-Dimethoxyphenoxy)-m-tolyl-methyl] morpholine hydrochloride] | 42.9 | 474 |
| Cc1cccc([C@H](Oc2cc(F)ccc2Cl)[C@@H]2CNCCO2)c1 [Example 59, (2S)-2-[(1S)-(2-Chloro-5-fluorophenoxy)-m-tolyl-methyl] morpholine hydrochloride] | 10.3 | 524 |
| Fc1cccc([C@H](Oc2c(F)cccc2Cl)[C@@H]2CNCCO2)c1 [Example 60, (2S)-2-[(1S)-(2-Chloro-6-fluorophenoxy) (3-fluorophenyl)methyl] morpholine hydrochloride] | 1.91 | 314 |
| COc1cccc([C@H](Oc2ccc(Cl)cc2OC)[C@@H]2CNCCO2)c1 [Example 61, (2S)-2-[(1S)-(4-Chloro-2-methoxyphenoxy) (3-methoxyphenyl)methyl] morpholine hydrochloride] | 20.1 | 38 |
| COc1cccc([C@H](Oc2ccc(F)cc2Cl)[C@@H]2CNCCO2)c1 [Example 63, (2S)-2-[(1S)-(2-Chloro-4-fluorophenoxy)-(3-methoxyphenyl)methyl] morpholine hydrochloride] | 3.21 | 124 |
| Fc1cccc([C@H](Oc2ccc(F)cc2F)[C@@H]2CNCCO2)c1 [Example 64, (2S)-2-[(1S)-(2,4-Difluorophenoxy) (3-fluoro-phenyl)methyl] morpholine hydrochloride] | 13.8 | 511 |
| Fc1cccc([C@H](Oc2c(F)cc(F)cc2F)[C@@H]2CNCCO2)c1 [Example 65, (2S)-2-[(1S)-(3-Fluorophenyl) (2,4,6-trifluorophenoxy)methyl] morpholine hydrochloride] | 15.7 | 511 |
| CCCc1ccccc1O[C@@H](c1cccc(F)c1)[C@@H]1CNCCO1 [Example 66, (2S)-2-[(1S)-(3-Fluorophenyl) (2-propylphenoxy)methyl] morpholine hydrochloride] | 19.9 | 1040 |

Next, values leading:

| Ki [1] [nM] | Ki [2] [nM] | SMILES |
| --- | --- | --- |
| 390 | 35.5 | Fc1cccc([C@H](Oc2ccc(C(F)(F)F)cc2)[C@@H]2CNCCO2)c1 [Example 67, (2S)-2-[(1S)-(3-Fluorophenyl) (4-trifluoromethyl phenoxy)methyl] morpholine hydrochloride] |
| 20.1 | 408 | COc1cccc([C@H](Oc2ccc(F)cc2OC)[C@@H]2CNCCO2)c1 [Example 68, (2S)-2-[(1S)-(4-Fluoro-2-methoxyphenoxy) (3-methoxyphenyl)methyl] morpholine hydrochloride] |
| 7.92 | 687 | COc1cccc([C@H](Oc2cc(F)ccc2Cl)[C@@H]2CNCCO2)c1 [Example 69, (2S)-2-[(1S)-(2-Chloro-5-fluorophenoxy) (3-methoxyphenyl)methyl] morpholine hydrochloride] |
| 28.6 | 77.7 | COc1cc(F)ccc1O[C@@H](c1ccc(Cl)cc1)[C@@H]1CNCCO1 [Example 71, (2S)-2-[(1S)-(4-Chloro-phenyl) (4-fluoro-2-methoxyphenoxy)methyl] morpholine hydrochloride] |
| 91.6 | 78.9 | Fc1ccc(O[C@@H](c2ccc(Cl)cc2)[C@@H]2CNCCO2)c(Cl)c1 [Example 72, (2S)-2-[(1S)-(2-Chloro-4-fluorophenoxy) (4-chlorophenyl)methyl] morpholine hydrochloride] |
| 75.7 | 14 | COc1cc(Cl)ccc1O[C@@H](c1ccc(Cl)cc1)[C@@H]1CNCCO1 [Example 73, (2S)-2-[(1S)-(4-Chloro-2-methoxyphenoxy) (4-chlorophenyl)methyl] morpholine hydrochloride] |
| 18.6 | 138 | Fc1ccc([C@H](Oc2ccc(F)cc2Cl)[C@@H]2CNCCO2)cc1 [Example 74, (2S)-2-[(1S)-(2-Chloro-4-fluorophenoxy) (4-fluorophenyl)methyl] morpholine hydrochloride] |
| 7.1 | 26.4 | Clc1cccc(O[C@@H](c2ccccc2)[C@@H]2CNCCO2)c1Cl [Example 81, (2S)-2-[(1S)-(2,3-Dichlorophenoxy)phenylmethyl] morpholine fumarate] |
| 11.9 | 12.1 | Cc1c(Cl)cccc1O[C@@H](c1ccccc1)[C@@H]1CNCCO1 [Example 82, (2S)-2-[(1S)-(3-Chloro-2-methylphenoxy)phenylmethyl] morpholine fumarate] |
| 8.9 | 222 | Fc1cc(F)c(Cl)c(O[C@@H](c2ccccc2)[C@@H]2CNCCO2)c1 [Example 83, (2S)-2-[(1S)-(2-Chloro-3,5-difluorophenoxy)phenylmethyl]morpholine fumarate] |
| 10.1 | 437 | COc1ccc(Cl)cc1O[C@@H](c1ccccc1)[C@@H]1CNCCO1 [Example 84, (2S)-2-[(1S)-(5-Chloro-2-methoxyphenoxy)phenylmethyl]morpholine fumarate] |
| 10.9 | 385 | Fc1c(F)c(F)c(O[C@@H](c2ccccc2)[C@@H]2CNCCO2)c(F)c1F [Example 85, (2S)-2-[(1S)-(Pentafluorophenyloxy) (phenyl)methyl] morpholine fumarate] |
